Reference: the supplement of paper PMC13207355
Where a name gives a salt, the structure may show the parent alone.

How the values were obtained:
Settings in all cases: exposure time: 72 h
E28 [1] = patient-derived glioblastoma stem cells of classical subtype; experiment: surviving fraction (nuclei count normalised to DMSO); higher = more cells surviving (less toxic)
E34 [2] = patient-derived glioblastoma stem cells of proneural subtype; experiment: as above
E13 [3] = patient-derived glioblastoma stem cells of classical subtype; experiment: as above
E21 [4] = patient-derived glioblastoma stem cells of mesenchymal subtype; experiment: as above
E57 [5] = patient-derived glioblastoma stem cells of mesenchymal subtype; experiment: as above
FT3469 [6] = normal neural stem cell line; experiment: as above
E31 [7] = patient-derived glioblastoma stem cells of proneural subtype; experiment: as above
E28 [8] = experiment: phenotypic distance (Euclidean, principal components) from DMSO controls (arbitrary units); higher = stronger morphological change
E34 [9] = experiment: as above
E13 [10] = experiment: as above
E21 [11] = experiment: as above
E57 [12] = experiment: as above
FT3469 [13] = experiment: as above
E31 [14] = experiment: as above
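Wherever phenotypic distance (Euclidean, principal components) from DMSO controls is given: cell Painting imaging in 384-well plates, CellProfiler features reduced to at least 20 principal components, Euclidean distance versus same-plate DMSO vehicle wells (0.1% v/v), median over six images per well.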
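Wherever surviving fraction (nuclei count normalised to DMSO) is given: nuclei counted by high-content imaging of Hoechst-stained cells in laminin-coated 384-well plates, relative to 0.1% DMSO vehicle wells, with staurosporine as cell-death control.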

CCN(CC)CCCC(C)Nc1c2ccc(Cl)cc2nc2ccc(OC)cc12 (stereo not drawn) [Quinacrine dihydrochloride hydrate]
Settings	phenotypic distance	surviving fraction
E13 [3], 4.11523 nM	–	0.934
E13 [3], 12.34567901 nM	–	0.901
E13 [3], 37.037 nM	–	0.789
E13 [3], 111.1111111 nM	–	0.985
E13 [3], 333.333 nM	–	0.993
E13 [3], 1000 nM	–	0.911
E13 [3], 3000 nM	–	0.709
E13 [10], 4.11523 nM	0.636	–
E13 [10], 12.34567901 nM	0.492	–
E13 [10], 37.037 nM	0.777	–
E13 [10], 111.1111111 nM	0.595	–
E13 [10], 333.333 nM	2.11	–
E13 [10], 1000 nM	3.45	–
E13 [10], 3000 nM	1.42	–
E21 [4], 4.11523 nM	–	0.908
E21 [4], 12.34567901 nM	–	0.974
E21 [4], 37.037 nM	–	1
E21 [4], 111.1111111 nM	–	0.955
E21 [4], 333.333 nM	–	1.05
E21 [4], 1000 nM	–	1.09
E21 [4], 3000 nM	–	0.71
E21 [11], 4.11523 nM	0.539	–
E21 [11], 12.34567901 nM	0.4	–
E21 [11], 37.037 nM	0.451	–
E21 [11], 111.1111111 nM	0.853	–
E21 [11], 333.333 nM	0.649	–
E21 [11], 1000 nM	1.12	–
E21 [11], 3000 nM	1.66	–
E28 [1], 4.11523 nM	–	1.09
E28 [1], 12.34567901 nM	–	1.03
E28 [1], 37.037 nM	–	0.987
E28 [1], 111.1111111 nM	–	1.11
E28 [1], 333.333 nM	–	1.05
E28 [1], 1000 nM	–	1.13
E28 [1], 3000 nM	–	0.69
E28 [8], 4.11523 nM	0.665	–
E28 [8], 12.34567901 nM	0.451	–
E28 [8], 37.037 nM	0.457	–
E28 [8], 111.1111111 nM	0.704	–
E28 [8], 333.333 nM	0.722	–
E28 [8], 1000 nM	0.455	–
E28 [8], 3000 nM	1.98	–
E31 [7], 4.11523 nM	–	0.883
E31 [7], 12.34567901 nM	–	1.02
E31 [7], 37.037 nM	–	1.06
E31 [7], 111.1111111 nM	–	1.14
E31 [7], 333.333 nM	–	0.914
E31 [7], 1000 nM	–	1.16
E31 [7], 3000 nM	–	0.516
E31 [14], 4.11523 nM	1.19	–
E31 [14], 12.34567901 nM	0.694	–
E31 [14], 37.037 nM	0.513	–
E31 [14], 111.1111111 nM	0.784	–
E31 [14], 333.333 nM	0.524	–
E31 [14], 1000 nM	0.913	–
E31 [14], 3000 nM	2.12	–
E34 [2], 4.11523 nM	–	0.882
E34 [2], 12.34567901 nM	–	0.943
E34 [2], 37.037 nM	–	0.902
E34 [2], 111.1111111 nM	–	0.99
E34 [2], 333.333 nM	–	1.21
E34 [2], 1000 nM	–	0.998
E34 [2], 3000 nM	–	0.806
E34 [9], 4.11523 nM	0.829	–
E34 [9], 12.34567901 nM	1.53	–
E34 [9], 37.037 nM	0.456	–
E34 [9], 111.1111111 nM	0.849	–
E34 [9], 333.333 nM	1.06	–
E34 [9], 1000 nM	1.21	–
E34 [9], 3000 nM	0.812	–
E57 [5], 4.11523 nM	–	0.945
E57 [5], 12.34567901 nM	–	1.05
E57 [5], 37.037 nM	–	0.97
E57 [5], 111.1111111 nM	–	1.13
E57 [5], 333.333 nM	–	1.04
E57 [5], 1000 nM	–	1.1
E57 [5], 3000 nM	–	1.04
E57 [12], 4.11523 nM	1.09	–
E57 [12], 12.34567901 nM	1.14	–
E57 [12], 37.037 nM	0.424	–
E57 [12], 111.1111111 nM	0.923	–
E57 [12], 333.333 nM	0.838	–
E57 [12], 1000 nM	1.18	–
E57 [12], 3000 nM	2.11	–
FT3469 [6], 4.11523 nM	–	1.04
FT3469 [6], 12.34567901 nM	–	1.01
FT3469 [6], 37.037 nM	–	0.948
FT3469 [6], 111.1111111 nM	–	1.1
FT3469 [6], 333.333 nM	–	1.02
FT3469 [6], 1000 nM	–	1.1
FT3469 [6], 3000 nM	–	0.826
FT3469 [13], 4.11523 nM	0.574	–
FT3469 [13], 12.34567901 nM	0.546	–
FT3469 [13], 37.037 nM	0.759	–
FT3469 [13], 111.1111111 nM	0.562	–
FT3469 [13], 333.333 nM	0.547	–
FT3469 [13], 1000 nM	0.651	–
FT3469 [13], 3000 nM	2.59	–
